Laboratory results: ChEMBL document CHEMBL4020798, “Anti-inflammatory effects and corresponding mechanisms of cirsimaritin extracted from Cirsium japonicum var. maackii Maxim” (Bioorg Med Chem Lett, 2017)
Values after ≈ are worked out from the molar mass of the structure shown. Active and inactive are the calls of the source. No cut-off for these calls is given here.

Assays:
[1] = molecular target: T1, NF-kappa-B inhibitor alpha (Mus musculus) (UniProt Q9Z1E3); experiment: Inhibition of IkappaBalpha phosphorylation in mouse RAW264.7 cells at 5 to 10 ug/ml preincubated for 1 hr followed by LPS-stimulation for 1 hr by Western blot method; type: cell-based
T1 sequence (whole entry): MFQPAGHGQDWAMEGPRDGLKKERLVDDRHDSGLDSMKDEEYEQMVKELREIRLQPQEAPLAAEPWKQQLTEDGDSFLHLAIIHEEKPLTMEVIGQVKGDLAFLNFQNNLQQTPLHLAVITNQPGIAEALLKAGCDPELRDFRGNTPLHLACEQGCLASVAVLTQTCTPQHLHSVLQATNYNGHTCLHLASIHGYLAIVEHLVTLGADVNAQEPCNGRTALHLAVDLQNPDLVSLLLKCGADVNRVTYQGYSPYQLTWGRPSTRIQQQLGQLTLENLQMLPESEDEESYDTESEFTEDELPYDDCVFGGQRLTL

Mus musculus [2] = organism: Mus musculus; experiment: Inhibition of ERK-phosphorylation in mouse RAW264.7 cells at 5 to 10 ug/ml preincubated for 1 hr followed by LPS-stimulation for 1 hr by Western blot analysis; type: cell-based
RAW264.7 [3] = experiment: Downregulation of IL-6 mRNA expression levels in mouse RAW264.7 cells at 5 to 10 ug/ml preincubated for 1 hr followed by LPS-stimulation for 4 hrs by qRT-PCR method; type: functional, cell-based
[4] = molecular target: T2, Nitric oxide synthase, inducible (Mus musculus) (UniProt P29477); experiment: Inhibition of LPS-induced iNOS expression in mouse RAW264.7 cells at 5 to 10 ug/ml pretreated for 1 hr followed by LPS stimulation for 20 hrs by immunoblotting method; type: cell-based
T2 sequence (whole entry): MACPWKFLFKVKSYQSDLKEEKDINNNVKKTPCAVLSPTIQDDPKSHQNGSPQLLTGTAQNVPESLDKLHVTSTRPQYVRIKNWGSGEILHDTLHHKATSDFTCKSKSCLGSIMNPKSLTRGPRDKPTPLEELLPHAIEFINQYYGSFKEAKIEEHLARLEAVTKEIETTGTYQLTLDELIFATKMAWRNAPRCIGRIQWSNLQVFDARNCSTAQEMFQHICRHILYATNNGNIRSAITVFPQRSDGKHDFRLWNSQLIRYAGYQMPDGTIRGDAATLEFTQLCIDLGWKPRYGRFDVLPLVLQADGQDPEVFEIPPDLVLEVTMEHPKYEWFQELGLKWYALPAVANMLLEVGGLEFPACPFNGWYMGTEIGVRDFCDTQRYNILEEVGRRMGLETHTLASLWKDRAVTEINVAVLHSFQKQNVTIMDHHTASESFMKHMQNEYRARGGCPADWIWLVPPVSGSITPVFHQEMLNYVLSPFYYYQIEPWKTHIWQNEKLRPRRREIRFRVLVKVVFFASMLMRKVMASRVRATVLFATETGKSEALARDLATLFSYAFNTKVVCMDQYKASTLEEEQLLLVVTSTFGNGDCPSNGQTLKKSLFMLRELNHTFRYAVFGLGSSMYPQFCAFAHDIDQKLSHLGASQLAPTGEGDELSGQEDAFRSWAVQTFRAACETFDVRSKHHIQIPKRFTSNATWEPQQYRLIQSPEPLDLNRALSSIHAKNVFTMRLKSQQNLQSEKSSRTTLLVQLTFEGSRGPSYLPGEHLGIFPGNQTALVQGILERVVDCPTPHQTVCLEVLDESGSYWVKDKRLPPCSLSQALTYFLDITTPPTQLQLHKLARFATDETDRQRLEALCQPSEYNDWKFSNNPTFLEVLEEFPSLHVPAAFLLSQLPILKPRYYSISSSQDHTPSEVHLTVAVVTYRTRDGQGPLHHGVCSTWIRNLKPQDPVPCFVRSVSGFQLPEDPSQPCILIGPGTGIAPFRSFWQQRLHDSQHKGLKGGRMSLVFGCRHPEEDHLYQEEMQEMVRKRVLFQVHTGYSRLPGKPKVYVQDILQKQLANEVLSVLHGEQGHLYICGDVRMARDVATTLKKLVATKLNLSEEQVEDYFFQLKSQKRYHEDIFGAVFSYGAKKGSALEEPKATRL

[5] = molecular target: RAC-alpha serine/threonine-protein kinase (Mus musculus) (UniProt P31750); experiment: Inhibition of Akt-phosphorylation in mouse RAW264.7 cells at 5 to 10 ug/ml preincubated for 1 hr followed by LPS-stimulation for 1 hr by Western blot analysis; type: cell-based
[6] = molecular target: Signal transducer and activator of transcription 3 (Mus musculus) (UniProt P42227); experiment: Inhibition of STAT3 phosphorylation at Y705 residue in mouse RAW264.7 cells preincubated for 1 hr followed by LPS-stimulation for 20 hrs by Western blot analysis; type: cell-based
[7] = molecular target: Protein c-Fos (Mus musculus) (UniProt P01101); experiment: Inhibition of c-fos-phosphorylation in mouse RAW264.7 cells preincubated for 1 hr followed by LPS-stimulation for 20 hrs by Western blot analysis; type: cell-based
RAW264.7 [8] = experiment: Cytotoxicity against mouse RAW264.7 cells assessed as decrease in cell viability incubated for 20 hrs by EZ-cytox assay; type: cell-based; details: RAW264.7, 20 h
RAW264.7 [9] = experiment: Antiinflammatory activity in mouse RAW264.7 cells assessed as inhibition of LPS-induced IL-6 production preincubated for 1 hr followed by LPS addition for 20 hrs by sandwich ELISA; type: functional, cell-based
[10] = molecular target: T1, NF-kappa-B inhibitor alpha (Mus musculus); experiment: Inhibition of IkappaBalpha degradation in mouse RAW264.7 cells at 5 to 10 ug/ml preincubated for 1 hr followed by LPS-stimulation for 1 hr by Western blot method; type: cell-based
[11] = molecular target: MAP kinase p38 (Mus musculus) (UniProt P47811+O08911+Q9WUI1+Q9Z1B7); experiment: Inhibition of p38-phosphorylation in mouse RAW264.7 cells at 5 to 10 ug/ml preincubated for 1 hr followed by LPS-stimulation for 1 hr by Western blot analysis; type: cell-based
RAW264.7 [12] = experiment: Inhibition of LPS-induced NO production in mouse RAW264.7 cells at 2 to 10 ug/ml preincubated for 1 hr followed by LPS-stimulation measured after 20 hrs by Griess assay; type: functional, cell-based
RAW264.7 [13] = experiment: Cytotoxicity against mouse RAW264.7 cells assessed as decrease in cell viability at 1 to 12 ug/ml pretreated for 1 hr followed by LPS stimulation for 20 hrs by CCK8/EZ-cytox assay; type: cell-based; details: raw264.7, 20 h
Mus musculus [14] = organism: Mus musculus; experiment: Inhibition of JNK-phosphorylation in mouse RAW264.7 cells at 5 to 10 ug/ml preincubated for 1 hr followed by LPS-stimulation for 1 hr by Western blot analysis; type: cell-based
[15] = molecular target: Signal transducer and activator of transcription 3 (Mus musculus) (UniProt P42227); experiment: Inhibition of STAT3 phosphorylation at S727 residue in mouse RAW264.7 cells preincubated for 1 hr followed by LPS-stimulation for 20 hrs by Western blot analysis; type: cell-based
RAW264.7 [16] = experiment: Downregulation of TNFalpha mRNA expression levels in mouse RAW264.7 cells at 5 to 10 ug/ml preincubated for 1 hr followed by LPS-stimulation for 4 hrs by qRT-PCR method; type: functional, cell-based
RAW264.7 [17] = experiment: Antiinflammatory activity in mouse RAW264.7 cells assessed as inhibition of LPS-induced TNFalpha release preincubated for 1 hr followed by LPS addition for 20 hrs by sandwich ELISA; type: functional, cell-based
RAW264.7 [18] = experiment: Downregulation of iNOS mRNA expression levels in mouse RAW264.7 cells at 5 to 10 ug/ml preincubated for 1 hr followed by LPS-stimulation for 4 hrs by qRT-PCR method; type: functional, cell-based

Chain of Signal transducer and activator of transcription 3 (Mus musculus) (P42227 whole entry): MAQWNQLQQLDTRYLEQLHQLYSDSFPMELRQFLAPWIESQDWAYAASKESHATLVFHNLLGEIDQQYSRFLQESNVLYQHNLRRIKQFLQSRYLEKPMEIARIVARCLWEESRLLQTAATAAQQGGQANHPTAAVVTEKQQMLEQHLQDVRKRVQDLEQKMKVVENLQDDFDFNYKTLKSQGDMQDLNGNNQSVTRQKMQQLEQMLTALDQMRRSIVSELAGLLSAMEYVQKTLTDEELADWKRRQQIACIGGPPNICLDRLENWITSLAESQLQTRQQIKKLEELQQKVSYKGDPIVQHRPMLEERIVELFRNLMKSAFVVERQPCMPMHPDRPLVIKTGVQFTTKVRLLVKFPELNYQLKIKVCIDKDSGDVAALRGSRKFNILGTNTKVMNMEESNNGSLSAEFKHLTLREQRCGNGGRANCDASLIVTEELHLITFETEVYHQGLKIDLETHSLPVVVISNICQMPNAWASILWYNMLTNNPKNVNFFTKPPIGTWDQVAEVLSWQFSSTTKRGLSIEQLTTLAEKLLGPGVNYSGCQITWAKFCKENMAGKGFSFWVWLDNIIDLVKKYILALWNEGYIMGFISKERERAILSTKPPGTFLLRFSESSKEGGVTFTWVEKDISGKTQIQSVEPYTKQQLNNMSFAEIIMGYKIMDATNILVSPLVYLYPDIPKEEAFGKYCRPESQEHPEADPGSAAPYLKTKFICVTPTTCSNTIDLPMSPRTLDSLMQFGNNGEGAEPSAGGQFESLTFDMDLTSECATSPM
Chain of Protein c-Fos (Mus musculus) (P01101 whole entry): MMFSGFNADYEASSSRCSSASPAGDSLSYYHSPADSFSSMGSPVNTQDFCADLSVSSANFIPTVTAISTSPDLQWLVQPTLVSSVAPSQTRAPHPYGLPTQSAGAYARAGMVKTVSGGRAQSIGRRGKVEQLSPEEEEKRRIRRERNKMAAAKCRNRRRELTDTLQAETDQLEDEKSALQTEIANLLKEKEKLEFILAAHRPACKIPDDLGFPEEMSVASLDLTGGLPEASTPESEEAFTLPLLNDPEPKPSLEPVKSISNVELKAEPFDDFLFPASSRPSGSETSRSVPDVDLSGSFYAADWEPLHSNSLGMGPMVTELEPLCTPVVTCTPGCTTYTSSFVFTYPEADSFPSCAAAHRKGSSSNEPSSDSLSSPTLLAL
Chain of RAC-alpha serine/threonine-protein kinase (Mus musculus) (P31750 whole entry): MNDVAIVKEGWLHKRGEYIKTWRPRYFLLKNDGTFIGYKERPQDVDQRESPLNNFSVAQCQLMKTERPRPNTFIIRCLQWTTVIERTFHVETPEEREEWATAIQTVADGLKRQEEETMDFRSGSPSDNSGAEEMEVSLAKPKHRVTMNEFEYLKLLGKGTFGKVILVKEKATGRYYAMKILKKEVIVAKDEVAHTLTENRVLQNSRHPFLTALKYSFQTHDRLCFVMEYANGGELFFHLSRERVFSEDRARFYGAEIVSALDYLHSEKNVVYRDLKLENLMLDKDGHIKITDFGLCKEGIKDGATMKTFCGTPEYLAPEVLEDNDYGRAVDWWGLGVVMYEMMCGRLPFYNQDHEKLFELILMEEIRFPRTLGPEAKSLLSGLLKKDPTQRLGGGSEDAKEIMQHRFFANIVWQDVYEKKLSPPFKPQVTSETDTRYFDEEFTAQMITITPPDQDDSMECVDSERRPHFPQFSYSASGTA

- inhibition [1]: Active
- inhibition [4]: Active
- inhibition [5]: Active
- inhibition [6]: Dose-dependent effect
- inhibition [7]: Dose-dependent effect
- inhibition [10]: Active
- inhibition [11]: inactive
- inhibition [15]: Dose-dependent effect
Structure (SMILES): COc1cc2oc(-c3ccc(O)cc3)cc(=O)c2c(O)c1OC [CIRSIMARITIN]
- inhibition (Mus musculus [2]): inactive
- Activity (RAW264.7 [3]): Dose-dependent effect
- IC50 (RAW264.7 [8]): 111 µg/mL (≈ 353 µM)
- inhibition (RAW264.7 [9]): Dose-dependent effect
- inhibition (RAW264.7 [12]): Active
- Activity (RAW264.7 [13]): Non-Toxic
- inhibition (Mus musculus [14]): inactive
- Activity (RAW264.7 [16]): Dose-dependent effect
- inhibition (RAW264.7 [17]): Dose-dependent effect
- Activity (RAW264.7 [18]): Dose-dependent effect
